Experimental data as given in US20150284362A1, “CARBAZOLE-CONTAINING AMIDES, CARBAMATES, AND UREAS AS CRYPTOCHROME MODULATORS” (ReSet Therapeutics, Inc., priority 2014, published 2015).

Experiments:
[1] = system: core clock gene mRNAs in liver; experiment: Four day study, liver core clock gene mRNA, ICR mice; type: in vivo, mouse; details: 50 mg/kg PO BID 4 days, ZT6
Method: Male ICR mice (weighing 30-35 g), obtained from Charles River Laboratories (Hollister, Calif.), were used for the experiment following at least 3 days of acclimation. Mice were dosed with vehicle (WFI or 10% Kolliphor) or compound (50 mg/kg, dose volume 5 mL/kg, PO) for 4 days BID (twice a day), beginning in the afternoon of the first day. The last dose of compound or vehicle was administered on the morning of harvest. On the day of harvest (6 hours following the final dose), mice were euthanized by CO2 asphyxiation and 50 mg of liver tissue was excised and placed in a tube containing 500 μl of RNA later.
E.Z.N.A.® HP Total RNA Isolation Kits (R6812-01 and the protocol described in the Manual, Revised 2010) were utilized to prepare and isolate RNA from the liver samples. To prepare the RNA samples, 10-30 mg of sample was removed from RNA-Later and placed in a 1.5 ml microfuge tube. […] The cleared supernatant was transferred by pipetting to a DNA Clearance Column Pre-inserted in a 2 mL Collection Tube. The assembled column was centrifuged at 13,000×g for 1 minute, and the flow-through was saved. An equal volume (700 μl) of 70% ethanol was added to the lysate and mixed. The sample was then applied to a HiBind RNA spin column placed into a 2 ml collection tube, which was centrifuged at 10,000×g for 60 seconds at room temperature. RNA Wash Buffer I (250 μl) was added by pipetting directly onto a new HiBind RNA column inserted in a 2 ml collection tube. The assembled column was centrifuged at 10,000×g for 60 seconds. The RNA column was placed into a new 2 ml collection tube. […] The column with bound RNA was incubated at room temperature (25-30° C.) for 15 minutes. RNA Wash Buffer I (500 μl) was added to the column and placed on a bench top for 2 minutes. After centrifuging at 10,000×g for 60 seconds, discarding the flow-through, 500 μl of RNA Wash Buffer II was added and centrifuged at 10,000×g for 60 seconds. Another 500 μl of RNA Wash Buffer II was added and the column assembly was centrifuged at 10,000×g for 60 seconds. The column was centrifuged for 2 minutes at maximum speed to completely dry the HiBind matrix. The column was placed in a clean 1.5 ml microcentrifuge tube and 40-70 μl of molecular biology grade water is added. After sitting for 1 minute, the column was centrifuged for 2 minutes at maximum speed to elute the RNA. The isolated RNA was collected into the collection tube.
RediPlate 96 RiboGreen RNA Quantification Kit (Invitrogen) RediPlate standard curve was prepared by transferring 20 μl reconstituted RNA standard to a RediPlate well reconstituted in 180 μl RediPlate TE buffer. For liver RNAs prepared from 30-100 mg of tissue using a kit similar to the Omega Bio-Tek HP Total RNA Kit and eluted in RNAse-free water in a volume of 50 μl (microliters), 5 μl of the total RNA is diluted in 195 μl of RediPlate TE buffer (1:40 dilution of RNA), mix. […] Alternatively, one can use the FlexStation 3 with Ex 488 nm and Em 525 nm and a Cutoff of 515 nm.

[2] = system: core clock gene mRNAs in liver; experiment: Single dose at peak (ZT0) or nadir (ZT10) of Cry1, liver core clock gene mRNAs; type: in vivo, mouse; details: db/db mice; single dose 50 mg/kg at ZT0 or ZT10; liver 7.5 hours later
Method: For compounds that interact directly with the core clock mechanism, the time of dosing may be critical for maximizing their effects. […] The former (ZT0) is coincident with the peak of Cry1 and Bmal1 protein in mouse liver and the latter (ZT10) corresponds to the approximate nadir of Cry1 and Bmal1. Liver tissue was taken 7.5 hours later for each, and the samples were examined for core clock gene mRNAs by RT-qPCR.

**Q.** O=C1NCCN1CC(O)Cn1c2ccc(F)cc2c2cc(F)ccc21 (stereo not drawn) [Compound 72, 1-(3-(3,6-difluoro-9H-carbazol-9-yl)-2-hydroxypropyl)imidazolidin-2-one] was tested. Which “Cry2 transcripts in liver” value [1] did it give?
**A.** The value was “decrease”.

**Q.** What about the “liver Per2 expression” value [1] of the same molecule?
**A.** The value was “suppression”.

**Q.** And the “impact on core clock gene mRNAs in liver, dosing at peak vs nadir” value [2]?
**A.** Its value is “greater relative impact on the clock mRNAs at the peak compared to the nadir”.
